From US20260092036A1, “CRYSTALLINE SALTS OF A T-TYPE CALCIUM CHANNEL MODULATOR AND METHODS OF USE THEREOF” (Praxis Precision Medicines, Inc., priority 2023, published 2026)

Experiments:
Assay type in all cases: physicochemical
[1] = Dynamic Vapor Sorption (DVS) on Pattern D
[2] = Water solubility of crystalline forms measured by HPLC
Method: Water solubility of Pattern D was measured by HPLC to determine how much the water solubility drops between Pattern C and Pattern D. To measure the solubility of Pattern D in H2O, ˜150 mg of Pattern D was slurried for 2 weeks at RT in 1 mL of H2O.

[3] = Solid form stability on heating (XRPD, hot stage microscopy); details: hydrochloride salt trihydrate
Method: Amorphous material was generated through ball milling in the experiments with the goal to obtain a new crystalline form. […] Pattern D was determined to be a channel trihydrate, the form identification was confirmed by Single Crystal XRD.
FIG. 5 is an overlay of XRPD spectra of Pattern D heated to 90° C. and cooled back to room temperature; Pattern D heated to 150° C. and cooled back to room temperature; as well as Pattern C and Pattern D reference spectra.
FIG. 6 is an image of Pattern D heated to different temperatures obtained using hot stage microscopy (HSM).

mass gained in DVS ([1]; at 80% RH): ~10.45%
water re-adsorbed after desolvation in DVS ([1]; by RH of 20%, after loss of moisture at RH close to 0): approximately 10.5%
form change post DVS (XRPD) ([1]; post DVS): no clear form change
form conversion after slurry in H2O (XRPD) ([2]; 2-week slurry in H2O at RT): no form conversion
solubility at 2 weeks ([2]; water, thermodynamic from solid): 77.2 mg/mL
form conversion on heating (XRPD) ([3]; heated to 90° C. and cooled back to room temperature): no form conversion
form on further heating (XRPD) ([3]; heated to 150° C. and cooled back to room temperature): turns amorphous
Compound: CC(C)(C)NC(=O)CN1CCC(CNC(=O)c2cc(F)cc(Cl)c2)CC1.Cl [Pattern D, N-((1-(2-(tert-butylamino)-2-oxoethyl)piperidin-4-yl)methyl)-3-chloro-5-fluorobenzamide hydrochloride salt trihydrate]
